# In US6914045B2, “Glycopeptide antibiotics” (Wyeth Holdings Corporation, priority 2001, dated 2005):
# Columns and labels:
# Assay in all cases: in vitro antibacterial evaluation, MIC by broth dilution
# Assay type in all cases: cell-based
# [1] = test system: Enterococcus sp.; details: broth dilution, 18 hours at 35° C.; for MIC Enterococcus faecalis (ATCC 29212): strain ATCC 29212; for MIC Enterococcus faecalis (GC 2242): strain GC 2242; for MIC Enterococcus faecium (GC 2243): strain GC 2243; for MIC Enterococcus faecalis (GC 2691): strain GC 2691; for MIC Enterococcus faecalis (GC 3059): strain GC 3059; for MIC Enterococcus faecalis (GC 4552): strain GC 4552; for MIC Enterococcus faecalis (GC 4553): strain GC 4553; for MIC Enterococcus faecalis (GC 4554): strain GC 4554; for MIC Enterococcus faecium (GC 4556): strain GC 4556; for MIC Enterococcus faecium (GC 4557): strain GC 4557; for MIC Enterococcus avium (GC 4558): strain GC 4558; for MIC Enterococcus faecalis (GC 6189): strain GC 6189
# Description: (§1) Methods for in vitro Antibacterial Evaluation (Table 1)
# (§2) The minimum inhibitory concentration (MIC), the lowest concentration of the antibiotic which inhibits growth of the test organism, is determined by the broth dilution method using Muller-Hinton II […] (Baltimore Biological Laboratories) following the recommendations of the National Committee for Clinical Laboratory Standards [Methods for dilution antimicrobial susceptibility tests for bacteria that grow aerobically, approved standard M7-A2, National Committee for Clinical Laboratory Standards, Villanova, Pa.].
# (§3) An inoculum level of 5×10^5 CFU/mL, and a range of antibiotic concentrations (64-0.06 μg/mL) is used. […] The test organisms include a spectrum of Gram-positive bacteria comprised of Staphylococcus sp., Streptococcus sp. and Enterococcus sp. These organisms include recent clinical isolates that are resistant to methicillin, penicillin and/or vancomycin.
# [2] = test system: Staphylococcus sp.; details: broth dilution, 18 hours at 35° C.; for MIC Staphylococcus aureus (ATCC 29213): strain ATCC 29213; for MIC Staphylococcus aureus (GC 1131): strain GC 1131; for MIC Staphylococcus aureus (GC 3051): strain GC 3051; for MIC Staphylococcus aureus (GC 3053): strain GC 3053; for MIC Staphylococcus aureus (GC 4541): strain GC 4541; for MIC Staphylococcus aureus (GC 4542): strain GC 4542; for MIC Staphylococcus aureus-SMITH (GC 4543): strain GC 4543; for MIC Staphylococcus aureus (GC 4544): strain GC 4544; for MIC Staphylococcus aureus (GC 4545): strain GC 4545; for MIC Staphylococcus haemolyticus (GC 4546): strain GC 4546; for MIC Coagulase Negative Staphylococcus (GC 4547): strain GC 4547; for MIC Coagulase Negative Staphylococcus (GC 4548): strain GC 4548; for MIC Coagulase Negative Staphylococcus (GC 4549): strain GC 4549; for MIC Coagulase Negative Staphylococcus (GC 4551): strain GC 4551; for MIC Coagulase Negative Staphylococcus (GC 6257): strain GC 6257
# Description: as §1, §2, §3
# [3] = test system: Streptococcus sp.; details: broth dilution, 18 hours at 35° C.; for MIC Streptococcus pneumoniae (ATCC 6301): strain ATCC 6301; for MIC Streptococcus pneumoniae (GC 1894): strain GC 1894; for MIC Streptococcus pyogenes (GC 4563): strain GC 4563; for MIC Streptococcus agalactiae (GC 4564): strain GC 4564; for MIC Streptococcus pneumoniae (GC 4565): strain GC 4565
# Description: as §1, §2, §3
# [4] = test system: Escherichia coli; details: broth dilution, 18 hours at 35° C.; for MIC Escherichia coli (ATCC 25922): strain ATCC 25922; for MIC Escherichia coli (GC 4559): strain GC 4559; for MIC Escherichia coli (GC 4560): strain GC 4560
# Outline: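 MIC is the lowest antibiotic concentration (tested 64-0.06 μg/mL) preventing growth of a 5×10^5 CFU/mL inoculum. Determined by broth dilution in Mueller-Hinton II medium following NCCLS standard M7-A2.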
MIC Enterococcus faecalis (ATCC 29212) [1] [µg/mL],MIC Enterococcus faecalis (GC 2242) [1] [µg/mL],MIC Enterococcus faecium (GC 2243) [1] [µg/mL],MIC Enterococcus faecalis (GC 2691) [1] [µg/mL],MIC Enterococcus faecalis (GC 3059) [1] [µg/mL],MIC Enterococcus faecalis (GC 4552) [1] [µg/mL],MIC Enterococcus faecalis (GC 4553) [1] [µg/mL],MIC Enterococcus faecalis (GC 4554) [1] [µg/mL],MIC Enterococcus faecium (GC 4556) [1] [µg/mL],MIC Enterococcus faecium (GC 4557) [1] [µg/mL],MIC Enterococcus avium (GC 4558) [1] [µg/mL],MIC Enterococcus faecalis (GC 6189) [1] [µg/mL],MIC Staphylococcus aureus (ATCC 29213) [2] [µg/mL],MIC Staphylococcus aureus (GC 1131) [2] [µg/mL],MIC Staphylococcus aureus (GC 3051) [2] [µg/mL],MIC Staphylococcus aureus (GC 3053) [2] [µg/mL],MIC Staphylococcus aureus (GC 4541) [2] [µg/mL],MIC Staphylococcus aureus (GC 4542) [2] [µg/mL],MIC Staphylococcus aureus-SMITH (GC 4543) [2] [µg/mL],MIC Staphylococcus aureus (GC 4544) [2] [µg/mL],SMILES,also measured
64,32,32,32,32,32,32,32,64,8,16,64,32,32,16,32,32,32,16,16,"COc1cc(-c2nc3cc(CC4NC(=O)C(C(C)c5ccccc5)NC(=O)CNC(=O)C(CO)NC(=O)C(C(O)C5CNC(=N)N5C5OC(CO)C(O)C(O)C5O)NC(=O)C(C(O)C5CNC(=N)N5)NC4=O)ccc3o2)cc(OC)c1OC (stereo not drawn) [Example 34, Cyclo[3-[2-(3,4,5-trimethoxyphenyl)-1,3-benzoxazol-5-yl]alanyl-3-(2-iminoimidazolidin-4-yl)seryl-3-(3-hexopyranosyl-2-iminoimidazolidin-4-yl)serylserylglycyl-β-methylphenyl-alanyl]]",MIC Staphylococcus aureus (GC 4545) [2]: 32 µg/mL; MIC Staphylococcus haemolyticus (GC 4546) [2]: 8 µg/mL; MIC Coagulase Negative Staphylococcus (GC 4547) [2]: 16 µg/mL; MIC Coagulase Negative Staphylococcus (GC 4548) [2]: 16 µg/mL; MIC Coagulase Negative Staphylococcus (GC 4549) [2]: 4 µg/mL; MIC Coagulase Negative Staphylococcus (GC 4551) [2]: 32 µg/mL; MIC Coagulase Negative Staphylococcus (GC 6257) [2]: 8 µg/mL; MIC Streptococcus pneumoniae (ATCC 6301) [3]: 32 µg/mL; MIC Streptococcus pneumoniae (GC 1894) [3]: 16 µg/mL; MIC Streptococcus pyogenes (GC 4563) [3]: 8 µg/mL; MIC Streptococcus agalactiae (GC 4564) [3]: 32 µg/mL; MIC Streptococcus pneumoniae (GC 4565) [3]: 32 µg/mL; MIC Escherichia coli (ATCC 25922) [4]: 64 µg/mL; MIC Escherichia coli (GC 4559) [4]: 64 µg/mL; MIC Escherichia coli (GC 4560) [4]: 16 µg/mL
16,16,8,16,32,32,8,32,32,4,8,16,8,8,8,8,8,8,8,8,"COc1ccc(Oc2cccc(-c3nc4cc(CC5NC(=O)C(C(C)c6ccccc6)NC(=O)CNC(=O)C(CO)NC(=O)C(C(O)C6CNC(=N)N6C6OC(CO)C(O)C(O)C6O)NC(=O)C(C(O)C6CNC(=N)N6)NC5=O)ccc4o3)c2)cc1 (stereo not drawn) [Example 35, Cyclo[3-[2-[3-(4-methoxyphenoxy)phenyl]-1,3-benzoxazol-5-yl]alanyl-3-(2-iminoimidazolidin-4-yl)seryl-3-(3-hexopyranosyl-2-iminoimidazolidin-4-yl)serylserylglycyl-β-methylphenyl-alanyl]]",MIC Staphylococcus aureus (GC 4545) [2]: 8 µg/mL; MIC Staphylococcus haemolyticus (GC 4546) [2]: 8 µg/mL; MIC Coagulase Negative Staphylococcus (GC 4547) [2]: 8 µg/mL; MIC Coagulase Negative Staphylococcus (GC 4548) [2]: 8 µg/mL; MIC Coagulase Negative Staphylococcus (GC 4549) [2]: 8 µg/mL; MIC Coagulase Negative Staphylococcus (GC 4551) [2]: 8 µg/mL; MIC Coagulase Negative Staphylococcus (GC 6257) [2]: 2 µg/mL; MIC Streptococcus pneumoniae (ATCC 6301) [3]: 8 µg/mL; MIC Streptococcus pneumoniae (GC 1894) [3]: 8 µg/mL; MIC Streptococcus pyogenes (GC 4563) [3]: 2 µg/mL; MIC Streptococcus agalactiae (GC 4564) [3]: 8 µg/mL; MIC Streptococcus pneumoniae (GC 4565) [3]: 16 µg/mL; MIC Escherichia coli (ATCC 25922) [4]: >128 µg/mL; MIC Escherichia coli (GC 4559) [4]: >128 µg/mL; MIC Escherichia coli (GC 4560) [4]: 16 µg/mL
